Test results as given in patent publication US20260028338A1, “HETEROBIFUNCTIONAL COMPOUNDS AND METHODS OF TREATING DISEASE” (Halda Therapeutics OpCo, Inc., priority 2023, published 2026).

Columns and labels:
[1] = test system: T-Rex 293 cell line SC cells having increased expression of BCL6 protein; experiment: Cellular growth inhibition assay, T-Rex 293 SC cells with doxycycline (CellTiter-Glo); assay type: cell-based; details: T-Rex 293 SC cells with 10 ng/mL doxycycline (increased BCL6 expression), 72 hours, CellTiter-Glo 2.0
Protocol: (§1) Exemplary compounds were tested for ability to inhibit the proliferation of the following types of cells: (i) a T-Rex 293 cell line having increased expression of BCL6 protein due to exposure of doxycycline and (ii) a T-Rex 293 cell line lacking increased expression of BCL6 protein.
(§2) The following types of cells were prepared for this experiment: (i) a T-Rex 293 cell line having increased expression of BCL6 protein due to exposure to doxycycline and (ii) a T-Rex 293 cell line lacking increased expression of BCL6 protein. Ability of the test compounds to inhibit proliferation of the foregoing cell types was evaluated according to the procedures set forth below.
(§3) The doxycycline-inducible BCL6 protein expressing cell line was established using the following protocol: T-Rex 293 cells were purchased from Invitrogen (Cat #R71007) and transfected using Lipofectamine 2000 with the wild-type BCL6 protein sequence cloned into the pcDNA4/TO vector. Transfected cells were selected using 400 μg/mL Zeocin (Invitrogen Cat #R25001). Following selection, single clones were raised and maintained in Dulbecco's Modified Eagle Medium (DMEM) supplemented with 10% w/w Tetracycline-free fetal bovine serum (FBS) and 250 μg/mL Zeocin. Clones were analyzed for expression of BCL6 protein in the presence and absence of 10 ng/mL doxycycline (Sigma Cat #D9891), and a single doxycycline-inducible clone (hereinafter “SC”) was selected for use in downstream assays.
(§4) The SC cells were seeded on poly-D-lysine coated, black clear-bottom 384-well plates at 2500/well, in 25 μL Dulbecco's Modified Eagle Medium (DMEM) supplemented with 10% w/w Tetracycline-free fetal bovine serum (FBS) and 1% w/w pen-strep, with or without 10 ng/mL doxycycline. Pen-Strep is a commercially available mixture of penicillin G and streptomycin, which is used in mammalian cell culture media to prevent bacterial contamination. Dulbecco's Modified Eagle Medium (DMEM) supplemented with 10% w/w Tetracycline-free fetal bovine serum (FBS) and 1% w/w pen-strep, with or without 10 ng/mL doxycycline is herein referred to as Treatment Medium. Following seeding of cells in the plates, the plates were spun at 300×g for 30 seconds, then equilibrated to room temperature for 30 minutes, and then deposited in a humidified tissue culture incubator maintained at 37° C. with 5% CO2.
(§5) At 24 hours after seeding of the cells, dilutions of test compound were prepared in DMSO and dissolved in Treatment Medium, to achieve a final DMSO concentration of 0.5% w/w, thereby providing the Test Compound Solution. A 25 μL aliquot of the Test Compound Solution was added to cells in the well plates. An equal volume of a solution containing DMSO and Treatment Medium was used as a negative control. Following treatment of cells with Test Compound Solution or said equal volume of a solution containing DMSO and Treatment Medium, the plates were spun at 300×g for 30 seconds, and then left in an incubator for 72 hours.
(§6) At the end of the treatment duration, cell viability was quantified with CellTiter-Glo 2.0 reagent (Promega Cat #G9243). For this purpose, plates were equilibrated to room temperature for 30 minutes, and then 25 μL of CellTiter-Glo 2.0 reagent was added to cells in the plate wells. Plates were then agitated on a shaker for two minutes at 500 rpm and subsequently incubated at room temperature for 10 minutes. Following incubation, the plates were spun at 3000×g for 30 seconds, then sealed with an optical adhesive cover, and luminescence readings were measured with an EnVision Plate Reader (Perkin Elmer).
(§7) Data was normalized using zero luminescence for baseline. A four-parameter non-linear regression curve fit was applied to dose-response data in GraphPad Prism data analysis software to determine the half-maximal growth inhibitory concentration (GI50) for each test compound.

[2] = test system: T-Rex 293 cell line SC cells lacking increased expression of BCL6 protein; experiment: Cellular growth inhibition assay, T-Rex 293 SC cells without doxycycline (CellTiter-Glo); assay type: cell-based; details: T-Rex 293 SC cells not exposed to doxycycline (no increased BCL6 expression), 72 hours, CellTiter-Glo 2.0
Protocol: as §1, §2, §3, §4, §5, §6, §7

[3] = target: T1, His-tagged BRD4 BD2 (333-460) (Homo sapiens, UniProt O60885); experiment: AlphaLISA competition assay, BRD4 BD2; assay type: binding; details: BRD4-BD2, AlphaLISA competition with biotinylated histone H4K5/8/12/16(Ac) peptide, 20 nM
T1 construct: The same assay was developed for His-tagged BRD4 BD2 (333-460) and biotinylated histone H4K5/8/12/16(Ac) peptide
Protocol: (§8) Exemplary compounds were tested for ability to bind to bromodomain-containing protein 4 (BRD4).
(§9) Compounds were tested using a developed AlphaLISA competition assay. Briefly, His-tagged BRD4 BD1 (46-168) and biotinylated histone H4K5/8/12/16(Ac) peptide (ANASPEC, AS-64989-1) were incubated in 20 mM HEPES pH 7.5, 100 mM NaCl, 0.5 mM TCEP, 0.1% BSA, 0.02% CHAPS at a final concentration of 10 nM. Test compounds were serially diluted ten times in the same buffer and were added to the BRD4-peptide mixture for 1 h incubation at room temperature. Following incubation, Streptavidin AlphaLISA acceptor beads (PerkinElmer, AL125M) were added to BRD4-peptide-compound samples to a final concentration of 0.01 mg/mL for a 0.5 h incubation at room temperature in the dark. Following incubation, the same amount of Nickel Chelate Alpha donor beads (PerkinElmer, AS101M) were added to the samples for a final 1 h incubation. The AlphaLISA signals were measured using an EnVision plate reader (PerkinElmer). The data were uploaded to Screening Ultra (Dotmatics) to determine the half-maximal inhibitory concentration (IC50) for each test compound.
The same assay was developed for His-tagged BRD4 BD2 (333-460) and biotinylated histone H4K5/8/12/16(Ac) peptide at a final concentration of 20 nM.

[4] = target: T2, His-tagged BRD4 BD1 (46-168) (Homo sapiens, UniProt O60885); experiment: AlphaLISA competition assay, BRD4 BD1; assay type: binding; details: BRD4-BD1, AlphaLISA competition with biotinylated histone H4K5/8/12/16(Ac) peptide, 10 nM
T2 construct: His-tagged BRD4 BD1 (46-168) and biotinylated histone H4K5/8/12/16(Ac) peptide
Protocol: as §8, §9

Farage cell line = experiment: Cellular growth inhibition assay, Farage cells (CellTiter-Glo); assay type: cell-based; details: Farage cell line (DLBCL), 72 hours, CellTiter-Glo 2.0
Protocol: Exemplary compounds were tested for ability to inhibit the proliferation of Su-DHL-4 and Farage cells. Su-DHL-4 and Farage cells are commercially available diffuse large B cell lymphoma cell lines (DLBCL).
Su-DHL-4 and Farage cells were purchased from American Type Cell Culture (ATCC Cat #CRL-2957/CRL-2630) and then seeded on poly-D-lysine coated, black clear-bottom 384-well plates at 3000/well in 25 μL Roswell Park Memorial Institute media (RPMI-1640) supplemented with 10% w/w Fetal bovine serum (FBS) and 1% w/w Pen-Strep. Pen-Strep is a commercially available mixture of penicillin G and streptomycin, which is used in mammalian cell culture media to prevent bacterial contamination. Roswell Park Memorial Institute media (RPMI-1640) supplemented with 10% w/w fetal bovine serum (FBS), and 1% w/w Pen-Strep is herein referred to as Treatment Medium. Following seeding of cells in the plates, the plates were spun at 300×g for 30 seconds, then equilibrated to room temperature for 30 minutes, and then deposited in a humidified tissue culture incubator maintained at 37° C. with 5% CO2.
as §5, §6, §7

| IC50 [3] | IC50 [4] | Compound | GI50 [1] | GI50 [2] | GI50 (Farage cell line) |
| --- | --- | --- | --- | --- | --- |
| 5 to 50 nM | 5 to 50 nM | CCS(=O)(=O)Nc1ccc(Oc2cccc(OCCCCN3CCN(CC4CCN(c5ncc(Cl)c(Nc6ccc7c(c6)cc(OCC(=O)NC)c(=O)n7C)n5)CC4)CC3)c2)c(-c2cn(C)c(=O)c3[nH]ccc23)c1 [Compound I-9] | < 500 nM | < 500 nM |  |
| < 5 nM | 5 to 50 nM | CCS(=O)(=O)Nc1ccc(Oc2ccc(OCCCCN3CCN(CC4CCN(c5ncc(Cl)c(Nc6ccc7c(c6)cc(OCC(=O)NC)c(=O)n7C)n5)CC4)CC3)cc2)c(-c2cn(C)c(=O)c3[nH]ccc23)c1 [Compound I-10] | < 500 nM | < 500 nM |  |
| 5 to 50 nM | 5 to 50 nM | CCS(=O)(=O)Nc1ccc(Oc2cccc(CCN3CCN(CC4CCN(c5ncc(Cl)c(Nc6ccc7c(c6)cc(OCC(=O)NC)c(=O)n7C)n5)CC4)CC3)c2)c(-c2cn(C)c(=O)c3[nH]ccc23)c1 [Compound I-17] | > 3000 nM | < 500 nM |  |
| 5 to 50 nM | 5 to 50 nM | CCS(=O)(=O)Nc1ccc(Oc2cccc(OCCCN3CCN(CC4CCN(c5ncc(Cl)c(Nc6ccc7c(c6)cc(OCC(=O)NC)c(=O)n7C)n5)CC4)CC3)c2)c(-c2cn(C)c(=O)c3[nH]ccc23)c1 [Compound I-6] | < 500 nM | < 500 nM |  |
| 5 to 50 nM | 5 to 50 nM | CCS(=O)(=O)Nc1ccc(Oc2ccc(OCCN3CCN(CCCC4CCN(c5ncc(Cl)c(Nc6ccc7c(c6)cc(OCC(=O)NC)c(=O)n7C)n5)CC4)CC3)cc2)c(-c2cn(C)c(=O)c3[nH]ccc23)c1 [Compound I-12] | < 500 nM | < 500 nM |  |
| 5 to 50 nM | 5 to 50 nM | CCS(=O)(=O)Nc1ccc(Oc2ccc(OCCN3CCN(CC4CCN(c5ncc(Cl)c(Nc6ccc7c(c6)cc(OCC(=O)NC)c(=O)n7C)n5)CC4)CC3)cc2)c(-c2cn(C)c(=O)c3[nH]ccc23)c1 [Compound I-7] | < 500 nM | < 500 nM |  |
| 5 to 50 nM | 5 to 50 nM | CCS(=O)(=O)Nc1ccc(Oc2cccc(OCCN3CCN(CCCC4CCN(c5ncc(Cl)c(Nc6ccc7c(c6)cc(OCC(=O)NC)c(=O)n7C)n5)CC4)CC3)c2)c(-c2cn(C)c(=O)c3[nH]ccc23)c1 [Compound I-11] | < 500 nM | < 500 nM |  |
|  |  | CNC(=O)COc1cc2cc(Nc3nc(N4CCC5(CC4)CC(Oc4ccc(C6=N[C@@H](C)c7nnc(C)n7-c7sc(C)c(C)c76)cc4)C5)ncc3Cl)ccc2n(C)c1=O [Compound I-28, 2-[[6-[[5-chloro-2-[2-[4-[(9S)-4,5,9,13-tetramethyl-3-thia-1,8,11,12-tetrazatricyclo[8.3.0.02,6]trideca-2 (6),4,7,10,12-pentaen-7-yl]phenoxy]-7-azaspiro[3.5]nonan-7-yl]pyrimidin-4-yl]amino]-1-methyl-2-oxo-3-quinolyl]oxy]-N-methyl-acetamide] | < 500 nM | < 500 nM | < 500 nM |
|  |  | CNC(=O)COc1cc2cc(Nc3nc(N4CCC(CN5CCC6(CC5)CC(CC5CC(Oc7ccc(C(C)(C)O)cc7-c7cn(C)c(=O)c8[nH]ccc78)C5)C6)CC4)ncc3Cl)ccc2n(C)c1=O (stereo not shown) [Compound I-54] | < 500 nM |  | < 500 nM |
| 5 to 50 nM | 5 to 50 nM | CCS(=O)(=O)Nc1ccc(Oc2ccc(OCCCN3CCN(CC4CCN(c5ncc(Cl)c(Nc6ccc7c(c6)cc(OCC(=O)NC)c(=O)n7C)n5)CC4)CC3)cc2)c(-c2cn(C)c(=O)c3[nH]ccc23)c1 [Compound I-8] | < 500 nM | < 500 nM |  |
| < 5 nM | 5 to 50 nM | CCS(=O)(=O)Nc1ccc(Oc2ccc(OCCN3CCN(CCC4CCN(c5ncc(Cl)c(Nc6ccc7c(c6)cc(OCC(=O)NC)c(=O)n7C)n5)CC4)CC3)cc2)c(-c2cn(C)c(=O)c3[nH]ccc23)c1 [Compound I-14] | < 500 nM | 500 to 1500 nM |  |
|  |  | CNC(=O)COc1cc2cc(Nc3nc(N4CCC(CN5CCC6(CC5)CC(CC5CC(Oc7ccc(C(C)(C)O)cc7-c7cn(C)c(=O)c8[nH]ccc78)C5)C6)CC4)ncc3Cl)ccc2n(C)c1=O (stereo not shown) [Compound I-53] | < 500 nM | < 500 nM | < 500 nM |
| < 5 nM | 5 to 50 nM | CCS(=O)(=O)Nc1ccc(Oc2ccc(CCN3CCN(CC4CCN(c5ncc(Cl)c(Nc6ccc7c(c6)cc(OCC(=O)NC)c(=O)n7C)n5)CC4)CC3)cc2)c(-c2cn(C)c(=O)c3[nH]ccc23)c1 [Compound I-16, 2-[[6-[[5-chloro-2-[4-[[4-[2-[4-[4-(ethylsulfonylamino)-2-(6-methyl-7-oxo-1H-pyrrolo[2,3-c]pyridin-4-yl)phenoxy]phenyl]ethyl]piperazin-1-yl]methyl]-1-piperidyl]pyrimidin-4-yl]amino]-1-methyl-2-oxo-3-quinolyl]oxy]-N-methyl-acetamide] | < 500 nM | < 500 nM |  |
| 5 to 50 nM | 5 to 50 nM | CCS(=O)(=O)Nc1ccc(Oc2cccc(OCCN3CCN(CCC4CCN(c5ncc(Cl)c(Nc6ccc7c(c6)cc(OCC(=O)NC)c(=O)n7C)n5)CC4)CC3)c2)c(-c2cn(C)c(=O)c3[nH]ccc23)c1 [Compound I-13] | < 500 nM | < 500 nM |  |
